The values below come from patent publication US5616615A, “Enaminone esters” (priority 1995, dated 1997).

Like-named read-outs stand apart in the source and are kept apart here.

Data set [1] can be described thus: in vivo. Particulars: mouse, in vivo. As for the experimental part: The first phase of the ADD Program involved performing tests on male Carworth Farms #1 mice. […] Three tests were performed:
In the second phase of the ADD program protocol, estimates of anticonvulsant activity and neurotoxicity are quantified. The median effective dose (ED50) in the MES, sc Met, and rotorod test is determined. In the case of a compound with apparent activity in only one anticonvulsant test, testing is carried out in the other up to, and in some cases beyond, doses which produce neurological deficit. Compounds which fail to produce minimal neurological deficit are tested whenever possible to doses ten times their lowest anticonvulsant ED50. […] The rotorod ED50 is determined at the time of the peak neurologic deficit.

The subject of the next data set is seizures. Nature of the data set: Anticonvulsant evaluation (ASP phase I / overall). In kind it is in vivo, mice. The settings on record: for minimal effective dose: Mus musculus, ip, Phase I, read-out: ASP Classification. In short, it runs like this: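 Male Carworth Farms #1 mice; maximal electroshock seizures elicited by 60-cycle AC, 50 mA, 0.2 s via corneal electrodes after a drop of 0.9% saline in the eye. Animals observed for 30 minutes.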

Data set [2] concerns Maximal electroshock seizures. Kind of data set: MES maximal electroshock seizure test, mice ip. Further details: TPE (time of peak effect), activity: unit not given here. The settings on record: for responders at 100 mg/kg / responders at 10 mg/kg: read-out: MES, animals protected/tested (converted); for anti-MES protecting ability: Phase I. In kind it is in vivo. As for the experimental part: Three tests were performed:
1. MES--Electroshock Seizure Test
(§1) Maximal electroshock seizures are elicited with a 60-cycle alternating current of 50 mA intensity (5-7 times that necessary to elicit minimal electroshock seizures) delivered via corneal electrodes for 0.2 seconds. A drop of 0.9% saline is instilled in the eye prior to application of the electrodes in order to […].
(Protection in the maximal electroshock model is a classic sign of anticonvulsant action.)

The test system of data set [3] is Maximal electroshock seizures. Nature of the data set: Phase VI oral MES test, rats. The format is in vivo. Particulars: for responders at 60 mg/kg / responders at 50 mg/kg: Rattus norvegicus, read-out: MES, animals protected/tested (converted).
Description: as §1
(§2) This oral screen is designated as phase VI.

Another data set can be described thus: Neurotoxicity, rats ip. The settings on record: 100 mg/kg.
The nature of data set [4]: in vivo. Particulars: rat, po.
Description: as §2

Data set [5] relates to Subcutaneous Pentylenetetrazol seizure. Kind of data set: sc Met subcutaneous pentylenetetrazol (Metrazol) seizure test, mice. Particulars: Mus musculus, sc, read-out: scMet, animals protected/tested (converted). In kind it is in vivo.
Another data set has as its system Corneal Kindled rats. Further details: ED50 (reduction from Stage 5 to Stage 4): unit not given beside the values. Particulars: po, 1 h, data provided by the ADD Program; 30 min; cited from earlier work.
[6] abbreviates: Mus musculus, ip, 0.5 h, 30 min.
Where [7] appears, read: Mus musculus, ip, 0.5 h, 30 min, read-out: MES, animals protected/tested.
Where [8] appears, read: Mus musculus, ip, 4 h, 4 h, read-out: MES, animals protected/tested.
Where [9] appears, read: Mus musculus, ip, 0.25 h, mice ip, 0.25 h.
The mark [10] stands for this setting: Mus musculus, ip, 0.5 h, mice ip, 0.50 h.
Where [11] appears, read: Mus musculus, ip, 1 h, mice ip, 1.00 h.
[12] abbreviates: Mus musculus, ip, 2 h, mice ip, 2.00 h.
[13] abbreviates: Mus musculus, ip, 4 h, mice ip, 4.00 h.
Setting [14] is: Mus musculus, ip, 0.25 h, Phase II, 0.25 h.
Setting [15] is: Mus musculus, ip, 1 h, Phase II, 1.00 h.

What is called ED50 is the midpoint of the dose-response relation.

Description for Neurotoxicity, rats ip: The rotorod test is used to elevate neurotoxicity. The animal is placed on a 1 inch diameter knurled plastic rod rotating at 6 rpm. […] Neurologic toxicity is defined as the failure of the animal to remain on the rod for 1 minute and the results are expressed as the number of animals protected/the number of animals tested.
The toxicity evaluation for the commercial agents as previously indicated was based on the onset of ataxia.

Take `CC1(C)CC(=O)C=C(Nc2ccccc2)C1` [Compound 36]: the “protective index” value in “in vivo [1]” was “modest”. Besides, the values for the TD50 in the data set “in vivo [1]” (ip) and in “in vivo [4]” were 233 mg/kg and > 250 mg/kg, respectively. Moreover, the “TPE (time of peak effect), toxicity” value in the data set “in vivo [1]” (ip) was 0.5. For the same compound, the results for the selectivity ratio in the data set “in vivo [1]” (ip) and in “in vivo [4]” were 2.13 and 8.3, respectively. The minimal effective dose in the data set with seizures was < 100 mg/kg. For the same compound, the “anticonvulsant activity” value in the data set on seizures (mouse, in vivo) was “potent anticonvulsants”. Further, the responders at 100 mg/kg was 66.7% in data set [2] (setting [6]); 0% in data set [2] (Mus musculus, ip, 4 h, 4 h); 0% in data set [5] (0.5 h, 30 min); 0% in data set [5] (4 h, 4 h). Besides, the responders at 300 mg/kg in data set [2] (setting [7]) is 100%; in data set [2] (setting [8]), 0%; in data set [5] (0.5 h, 30 min) it was 0%; in data set [5] (4 h, 4 h) it was 0%. Further, the median effective dose (ED50) in data set [2] (Mus musculus, Phase II, ip, time of peak effect) came to 109 mg/kg; in data set [3] (Phase VI, oral, rat), 30.1 mg/kg. The “TPE (time of peak effect), activity” value in data set [2] (Phase II, ip) worked out at 0.5. The “anticonvulsant activity over time” value in data set [3] (Phase VI, rats) is listed as “anticonvulsant activity is lost after 1 hour”. In addition, the responders at 60 mg/kg in data set [3] (0.5 h, oral, 0.50 h) is 75%; in data set [3] (oral, 0.25 h) it was 75%; in data set [3] (oral, 1.00 h) it was 0%; in data set [3] (oral, 2.00 h), 0%; in data set [3] (oral, 4.00 h) it was 0%. The animals displaying neurotoxicity/tested in “Neurotoxicity, rats ip” (0.25 h (Table X-A)) is reported as 5/8; in the data set “Neurotoxicity, rats ip” (0.50 h (Table X-A)) it was 7/8; in the data set “Neurotoxicity, rats ip” (1.00 h (Table X-A)), 6/8; in “Neurotoxicity, rats ip” (2.00 h (Table X-A)) it was 6/8; in the data set “Neurotoxicity, rats ip” (4.00 h (Table X-A)) it was 3/8; in “Neurotoxicity, rats ip” (6.00 h (Table X-A)) it was 3/8. Besides, the animals displaying neurotoxicity/tested in the data set “Neurotoxicity, rats ip” (24.00 h (Table X-A)) was 0/8. Also, the “Tox, animals toxic/tested” value in the data set “in vivo [4]” (60 mg/kg) is listed as 0/4.

As for `CCOC(=O)C1C(=O)C=C(Nc2ccc(C(F)(F)F)cc2)CC1C` (stereo not shown) [Compound 131], the “Tox, animals toxic/tested” value is recorded as 0/8 in “in vivo [1]” (ip, 100 mg/kg) and 0/4 in “in vivo [4]” (50 mg/kg). For the same compound, in the data set with seizures, the minimal effective dose was < 100 mg/kg. The responders at 10 mg/kg is 100% in data set [2] (setting [9]); 75% in data set [2] (setting [10]); 100% in data set [2] (setting [11]); 50% in data set [2] (setting [12]); 50% in data set [2] (setting [13]). The responders at 100 mg/kg is 100% in data set [2] (setting [6]); 0% in data set [2] (Mus musculus, ip, 4 h, 4 h); 0% in data set [5] (0.5 h, 30 min); 0% in data set [5] (4 h, 4 h). For the same compound, the responders at 300 mg/kg is 100% in data set [2] (setting [7]); 100% in data set [2] (setting [8]); 0% in data set [5] (0.5 h, 30 min); 0% in data set [5] (4 h, 4 h). The “anti-MES protecting ability” value in data set [2] is “showed anti-MES protecting ability”. Moreover, the responders at 50 mg/kg was 100% in data set [3] (0.5 h, oral, 0.50 h); 100% in data set [3] (oral, 0.25 h); 100% in data set [3] (oral, 1.00 h); 100% in data set [3] (oral, 2.00 h).

With `CC1(C)CC(=O)C=C(Nc2ccc(N)cc2)C1` [Compound 142], in “in vivo [1]” (100 mg/kg), the “Tox (rotorod), animals toxic/tested” value is listed as 0/2. In addition, the minimal effective dose in the data set with seizures is < 100 mg/kg. Further, the responders at 100 mg/kg in data set [2] (setting [14]) is 50%; in data set [2] (setting [6]) it was 0%; in data set [2] (setting [15]), 50%; in data set [2] (Mus musculus, ip, 4 h, 4 h) it was 33.3%; in data set [5] (0.5 h, 30 min), 0%; in data set [5] (4 h, 4 h) it was 0%. Also, the responders at 300 mg/kg in data set [2] (setting [7]) is 100%; in data set [2] (setting [8]) it was 100%; in data set [5] (0.5 h, 30 min) it was 0%; in data set [5] (4 h, 4 h), 0%. The responders at 50 mg/kg in data set [3] (0.5 h, oral, 0.50 h) is 0%; in data set [3] (oral, 0.25 h), 0%; in data set [3] (oral, 1.00 h), 0%; in data set [3] (oral, 2.00 h), 0%; in data set [3] (oral, 4.00 h) it was 25%. In addition, the “Tox, animals toxic/tested” value in “in vivo [4]” (50 mg/kg) was 0/4.

In the case of `O=C1CN=C(c2ccccc2Cl)c2cc([N+](=O)[O-])ccc2N1` [clonazepam], in the data set on Corneal Kindled rats, the “ED50 (reduction from Stage 5 to Stage 4)” value is listed as 0.70.

For `CCOC(=O)C1C(=O)C=C(Nc2ccc(Cl)cc2)CC1C` (stereo not shown) [Compound 122], the “Tox (rotorod), animals toxic/tested” value in “in vivo [1]” (3 mg/kg) and in the data set “in vivo [1]” (10 mg/kg) was 0/4 each time. For the same compound, the minimal effective dose in the data set with seizures is < 100 mg/kg. Also, the responders at 10 mg/kg in data set [2] (setting [9]) is 75%; in data set [2] (Mus musculus, ip, 0.5 h, Phase II, 0.50 h), 25%; in data set [2] (setting [10]), 75%; in data set [2] (setting [11]) it was 100%; in data set [2] (setting [12]) it was 25%; in data set [2] (setting [13]), 25%. In addition, the responders at 100 mg/kg in data set [2] (setting [6]) was 100%; in data set [2] (Mus musculus, ip, 4 h, 4 h), 0%; in data set [5] (0.5 h, 30 min), 0%; in data set [5] (4 h, 4 h), 0%. Further, the responders at 300 mg/kg in data set [2] (setting [7]) was 100%; in data set [2] (setting [8]), 100%; in data set [5] (0.5 h, 30 min, second trial) it was 50%; in data set [5] (0.5 h, 30 min), 100%; in data set [5] (4 h, 4 h) it was 0%. Also, the responders at 3 mg/kg in data set [2] (Mus musculus, ip, 0.5 h, Phase II, 3 mg/kg, 0.50 h, read-out: MES, animals protected/tested) came out at 0%. In data set [2], the “anti-MES protecting ability” value is listed as “showed anti-MES protecting ability”. The responders at 50 mg/kg in data set [3] (0.5 h, oral, 0.50 h) is 100%; in data set [3] (oral, 0.25 h), 75%; in data set [3] (oral, 1.00 h) it was 75%; in data set [3] (oral, 2.00 h) it was 100%. Besides, the “Tox, animals toxic/tested” value in the data set “in vivo [4]” (50 mg/kg) is given as 0/4.

Consider `CCOC(=O)C1C(=O)C=C(Nc2ccc(CC)cc2)CC1C` (stereo not shown) [Compound 126], for which the “Tox (rotorod), animals toxic/tested” value in the data set “in vivo [1]” (100 mg/kg) is listed as 0/2. Moreover, the minimal effective dose in the data set with seizures was > 100 mg/kg. Further, the responders at 100 mg/kg in data set [2] (setting [14]) is 100%; in data set [2] (setting [15]), 0%. Also, the responders at 300 mg/kg was 100% in data set [2] (setting [7]); 0% in data set [2] (setting [8]); 0% in data set [5] (0.5 h, 30 min); 0% in data set [5] (4 h, 4 h). Also, the responders at 50 mg/kg in data set [3] (0.5 h, oral, 0.50 h) was 75%; in data set [3] (oral, 0.25 h) it was 50%; in data set [3] (oral, 1.00 h), 75%; in data set [3] (oral, 2.00 h), 75%; in data set [3] (oral, 4.00 h) it was 50%. The “Tox, animals toxic/tested” value in the data set “in vivo [4]” (50 mg/kg) is reported as 0/4.
